Measured values published in US5932742A, “Arylsulfonylimidazolone derivatives as an antitumor agent” (priority 1996, dated 1999).
Converted amounts (≈) assume the structure as drawn. Counter-ions that a name gives are not always drawn. Like-named read-outs stand apart in the source and are kept apart here.

Columns and labels:
Type in all cases: cell-based
[1] = tested on: Colo205 (ATCC CCL 222): human colon adenocarcinoma; experiment: In vitro antitumor activity, MTT assay, Colo205; details: for IC50: Homo sapiens
Description: (§1) In vitro antitumor activity against human tumor cell lines
(§2) In vitro antitumor activity of the compounds according to the present invention was determined by MTT assay method against the following human tumor cell lines:
Colo205 (ATCC CCL 222): human colon adenocarcinoma
(§3) In this test, the known antineoplastic compounds, Doxorubicin and Sulofenur, were used as the comparative agents.
(§4) Each of the tumor cells was cultured in RPMI 1640 media containing 10% fetal bovine serum, 100 IU/ml penicillin and 100 μg/ml streptomycin, and then periodically subcultured once or twice per week in trypsin-EDTA solution containing 0.05% trypsin and 0.53mM EDTA.4Na. The human tumor cell line thus obtained (10,000cells/100 μl) was plated on 96-well microplate and then cultured for 24 hrs at 37° C. in a 5% CO2 incubator. Test compound was dissolved in DMSO, sterilized with 0.22 μm PVDF filter, and then serially 5-fold diluted from 40 μg/ml to 0.00256μg/ml. 100 μl of the sample solution thus prepared and RPMI 1640 medium only (control group) were added to 96-well microplate containing the human tumor cell, respectively. The final concentration of the test compound was in the range from 20 μg/ml to 0.00128 μg/ml and the concentration of DMSO was below 0.5%. The cells were cultured for 48 hrs at 37° C. in a 5% CO2 incubator. MTT(3-(4,5-Dimethylthiazole-2-yl)-e,5-diphenyltetrazoliumbromide) was dissolved in physiological saline in a concentration of 2 mg/ml and the resulting solution was filtered through 0.22 μm PTFE filter. 25 μl of MTT solution thus prepared was added to each well of 96-well microplate and incubated for additional 4 hrs at 37° C. in a 5% CO2 incubator. Then, the content of microplate was centrifuged at 1000 rpm for 10 min, and supernatant was removed by flicking. The formazan formed from MTT by mitochondrial succinate dehydrogenase was dissolved in 100 μl of DMSO. The absorbance of each well was measured at 540nm by micro ELISA reader and the cytotoxicity was calculated by dividing the absorbance of test group by the absorbance of control group. After the calculated cytotoxicity (%) was plotted, the concentration of 50% tumor growth inhibition concentration (IC50) was estimated by Linear-Regression method.

[2] = tested on: SK-OV-3 (ATCC HTB 77): human ovarian adenocarcinoma; experiment: In vitro antitumor activity, MTT assay, SK-OV-3; details: for IC50: Homo sapiens
Description: as §1, §2
SK-OV-3 (ATCC HTB 77): human ovarian adenocarcinoma
as §3, §4

[3] = tested on: A549 (ATCC CCL 185): human lung carcinoma; experiment: In vitro antitumor activity, MTT assay, A549; details: for IC50: Homo sapiens, A549, 48 h
Description: as §1, §2
A549 (ATCC CCL 185): human lung carcinoma
as §3, §4

[4] = tested on: K562 (ATCC CCL 243): human chronic myelogenous leukemia; experiment: In vitro antitumor activity, MTT assay, K562; details: Homo sapiens, K562, 48 h
Description: as §1, §2
K562 (ATCC CCL 243): human chronic myelogenous leukemia
as §3, §4

[5] = tested on: KB (ATCC CCL 17): human epidermoid carcinoma; experiment: In vitro antitumor activity, MTT assay, KB; details: MTT, 48 hrs; for IC50: Homo sapiens, read-out: IC50 (KB)
Description: as §1, §2
KB (ATCC CCL 17): human epidermoid carcinoma
as §3, §4

[6] = COLO 205, Table 3, 48 hrs, read-out: IC50 (Col205)

Row | IC50 [1, 6] [µg/mL] | IC50 ([2]; SK-OV-3, Table 3, 48 hrs) [µg/mL] | IC50 ([3]; Table 3) [µg/mL] | IC50 ([4]; Table 3, read-out: IC50 (K562)) [µg/mL] | Structure (SMILES) | also measured
1 | 8.74 (≈ 17.6 µM) | 3.13 (≈ 6.3 µM) | 3.29 (≈ 6.63 µM) | 3.94 (≈ 7.94 µM) | O=C1NC(c2ccccc2)CN1S(=O)(=O)c1ccc2c(c1)CCN2C(=S)Nc1ccc(F)cc1 (centres unmarked) [Example 46, 4-phenyl-1-[N-(4-fluorophenyl)thiocarbamoylindoline-5-sulfonyl]-4,5-dihydro-2-imidazolone] | 
2 | 0.71 (≈ 1.4 µM) | 0.716 (≈ 1.41 µM) | 2.34 (≈ 4.6 µM) | > 20 | CSc1ccc(NC(=O)N2CCc3cc(S(=O)(=O)N4CC(c5ccccc5)NC4=O)ccc32)cc1 (centres unmarked) [Example 37] | 
3 | 2.14 (≈ 4.46 µM) | 10.5 (≈ 21.9 µM) | 0.095 (≈ 0.198 µM) | 0.017 (≈ 0.0355 µM) | O=C1NC(c2ccccc2)CN1S(=O)(=O)c1ccc2c(c1)CCN2C(=S)Nc1ccccc1 (centres unmarked) [Example 42, 4-phenyl-1-(N-phenylthiocarbamoylindoline-5-sulfonyl)-4,5-dihydro-2-imidazolone] | 

The next lines start with the molecule.

Row | Structure (SMILES) | IC50 [1, 6] [µg/mL] | IC50 ([2]; SK-OV-3, Table 3, 48 hrs) [µg/mL] | IC50 ([3]; Table 3) [µg/mL] | IC50 ([4]; Table 3, read-out: IC50 (K562)) [µg/mL] | also measured
4 | CC(C)NC(=O)N1c2ccc(S(=O)(=O)n3cc(-c4ccccc4)[nH]c3=O)cc2CC1C (centres unmarked) [Example 7, 4-phenyl-1-(N-isopropylcarbamoyl-2-methylindoline-5-sulfonyl)-2-imidazolone] |  |  |  |  | IC50 ([1]; COLO 205, Table 1, 48 hrs, read-out: IC50 (Colo205)): 0.102 µg/mL (≈ 0.232 µM); IC50 ([2]; SK-OV-3, Table 1, 48 hrs): 1.07 µg/mL (≈ 2.43 µM); IC50 ([5]; Table 1): 0.162 µg/mL (≈ 0.368 µM); IC50 ([3]; Table 1): 0.105 µg/mL (≈ 0.238 µM)
5 | O=C(c1cccs1)N1CCc2cc(S(=O)(=O)n3cc(-c4ccccc4)[nH]c3=O)ccc21 [Example 17, 4-phenyl-1-(N-thiophenoylindoline-5-sulfonyl)-2-imidazolone] |  |  |  |  | IC50 (Colo205) ([1]; Table 1, 48 hrs): 0.386 µg/mL (≈ 0.855 µM); IC50 (SK-OV-3) ([2]; Table 1, 48 hrs): 0.729 µg/mL (≈ 1.61 µM); IC50 (KB) ([5]; Table 1): 0.008 µg/mL (≈ 0.0177 µM); IC50 (A549) ([3]; Table 1, 48 hrs): 0.046 µg/mL (≈ 0.102 µM)
6 | CC(C)NCC(=O)N1c2ccc(S(=O)(=O)n3cc(-c4ccccc4)[nH]c3=O)cc2CC1C (centres unmarked) [Example 23, 4-phenyl-1-(N-isopropylaminoacetyl-2-methylindoline-5-sulfonyl)-2-imidazolone.HCl] |  |  |  |  | IC50 ([1]; COLO 205, Table 2, 48 hrs, read-out: IC50 (Colo205)): 3.45 µg/mL; IC50 ([2]; SK-OV-3, Table 2, 48 hrs): 4.03 µg/mL; IC50 ([5]; Table 2): 0.429 µg/mL; IC50 ([3]; Table 2): 1.14 µg/mL
7 | CNC(=S)N1CCc2cc(S(=O)(=O)N3CC(c4ccccc4)NC3=O)ccc21 (centres unmarked) [Example 38, 4-phenyl-1-(N-methylthiocarbamoylindoline-5-sulfonyl)-4,5-dihydro-2-imidazolone] | 0.65 (≈ 1.56 µM) | 1.98 (≈ 4.75 µM) | 0.092 (≈ 0.221 µM) | 0.00452 (≈ 0.0109 µM) | 
8 | C[C@H](N)C(=O)Nc1ccc(C(=O)N2CCc3cc(S(=O)(=O)N4C[C@H](c5ccccc5)NC4=O)ccc32)cc1 [Example 66, (S)-(+)-4-phenyl-1-[N-{4-(2-aminopropanoyl)aminobenzoyl}indoline-5-sulfonyl]-4,5-dihydro-2-imidazolone.HCl] |  |  |  |  | IC50 ([1]; COLO 205, Table 5, 48 hrs, read-out: IC50 (Colo205)): 0.77 µg/mL; IC50 ([2]; SK-OV-3, Table 5, 48 hrs): 0.259 µg/mL; IC50 ([3]; Table 5): 0.112 µg/mL; IC50 ([4]; Table 5, read-out: IC50 (K562)): 3.57 µg/mL
9 | CCNC(=S)N1CCc2cc(S(=O)(=O)N3CC(c4ccccc4)NC3=O)ccc21 (centres unmarked) [Example 39, 4-phenyl-1-(N-ethylthiocarbamoylindoline-5-sulfonyl)-4,5-dihydro-2-imidazolone] | 9.11 (≈ 21.2 µM) | 3.17 (≈ 7.36 µM) | 0.438 (≈ 1.02 µM) | 0.567 (≈ 1.32 µM) | 
10 | Cc1ccc(NC(=O)N2CCc3cc(S(=O)(=O)N4CC(c5ccccc5)NC4=O)ccc32)cc1 (centres unmarked) [Example 45, 4-phenyl-1-[N-(4-methylphenyl)carbamoylindoline-5-sulfonyl]-4,5-dihydro-2-imidazolone] | 3.27 (≈ 6.85 µM) | 0.813 (≈ 1.71 µM) | 0.311 (≈ 0.653 µM) | 1.03 (≈ 2.17 µM) | 
11 | O=C(NC1CCCCC1)N1CCc2cc(S(=O)(=O)N3CC(c4ccccc4)NC3=O)ccc21 (centres unmarked) [Example 33, 4-phenyl-1-(N-cyclohexylcarbamoylindoline-5-sulfonyl)-4,5-dihydro-2-imidazolone] | 0.172 (≈ 0.367 µM) | 0.043 (≈ 0.0918 µM) | 0.003 (≈ 0.0064 µM) | 0.0037 (≈ 0.0079 µM) | 
12 | CCNC(=O)N1CCc2cc(S(=O)(=O)n3cc(-c4ccccc4)[nH]c3=O)ccc21 [Example 2, 4-phenyl-1-(N-ethylcarbamoylindoline-5-sulfonyl)-2-imidazolone] |  |  |  |  | IC50 ([2]; SK-OV-3, Table 1, 48 hrs): 0.537 µg/mL (≈ 1.3 µM); IC50 ([5]; Table 1): 16.7 µg/mL (≈ 40.4 µM); IC50 ([3]; Table 1): 0.325 µg/mL (≈ 0.788 µM)
